Source: ChEMBL document CHEMBL1201862, “PubChem BioAssay data set” (2004)
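Exposure lasted 48 hours, with cells grown in 96-well plates and compounds tested at five concentrations. The concentration for 50% growth inhibition is given as GI50.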 The source made the active and inactive calls. Cut-off read from the data, not from the text of the source: active = GI50 up to about 1.1 µM and inactive = higher.

Tests used:
Test in all cases: growth of human tumour cells (NCI), 48 h
A549 = test system: A549
ACHN = test system: ACHN
HL-60 = test system: HL-60
Hs-578T = test system: Hs-578T
K562 = test system: K562
MDA-MB-231 = test system: MDA-MB-231
MDA-N = test system: MDA-N
MOLT-4 = test system: MOLT-4
Malme-3M = test system: Malme-3M
NCI-H522 = test system: NCI-H522
OVCAR-4 = test system: OVCAR-4
OVCAR-5 = test system: OVCAR-5
OVCAR-8 = test system: OVCAR-8
PC-3 = test system: PC-3
RPMI-8226 = test system: RPMI-8226
SF-268 = test system: SF-268
SK-MEL-28 = test system: SK-MEL-28
SK-MEL-2 = test system: SK-MEL-2
SN12C = test system: SN12C
TK-10 = test system: TK-10

SMILES | GI50 (A549) | GI50 (ACHN) | GI50 (HL-60) | GI50 (Hs-578T) | GI50 (K562) | GI50 (MDA-MB-231) | GI50 (MDA-N) | GI50 (MOLT-4) | GI50 (Malme-3M) | GI50 (NCI-H522) | GI50 (OVCAR-4) | GI50 (OVCAR-5) | GI50 (OVCAR-8) | GI50 (PC-3) | GI50 (RPMI-8226) | GI50 (SF-268) | GI50 (SK-MEL-28) | GI50 (SK-MEL-2) | GI50 (SN12C) | GI50 (TK-10)
N#CC(C#N)[C@@H]1CCC=C(Sc2ccccc2)[C@H]1Sc1ccccc1 | 3.28 µM (inactive) | 2.34 µM (inactive) | 2.01 µM (inactive) | 5.16 µM (inactive) | 2.36 µM (inactive) | 4.05 µM (inactive) | 1.32 µM (inactive) | 2.38 µM (inactive) | 2.42 µM (inactive) | 2.19 µM (inactive) | 4.6 µM (inactive) | 5.58 µM (inactive) | 2.7 µM (inactive) | 3.86 µM (inactive) | 2.28 µM (inactive) | 5.62 µM (inactive) | 2.72 µM (inactive) | 3.07 µM (inactive) | 2.8 µM (inactive) | 1.86 µM (inactive)
Cc1cccc(C)c1NC(=O)/C=C/c1ccccc1 | > 100 µM (inactive) | 15.4 µM (inactive) | > 100 µM (inactive) | 24.6 µM (inactive) | > 100 µM (inactive) | > 100 µM (inactive) | > 100 µM (inactive) | > 100 µM (inactive) | 51.2 µM (inactive) | 18.8 µM (inactive) | > 100 µM (inactive) | > 100 µM (inactive) | 73.1 µM (inactive) | > 100 µM (inactive) | > 100 µM (inactive) | > 100 µM (inactive) | > 100 µM (inactive) | > 100 µM (inactive) | > 100 µM (inactive) | > 100 µM (inactive)
COc1ccc(-c2oc3c(OC)c(OC)c(OC)c(OC)c3c(=O)c2OC)cc1OC [3,5,6,7,8,3',4'-HEPTAMETHOXYFLAVONE] | 70.6 µM (inactive) | 33.5 µM (inactive) | 14.1 µM (inactive) | 20.9 µM (inactive) | 31.5 µM (inactive) | 59.7 µM (inactive) | 27.6 µM (inactive) | 22.4 µM (inactive) | 28 µM (inactive) | 19.4 µM (inactive) | 47.2 µM (inactive) | > 100 µM (inactive) | 23.6 µM (inactive) | 26.6 µM (inactive) | 12.4 µM (inactive) | 5.45 µM (inactive) | 66.7 µM (inactive) | 29.6 µM (inactive) | 93.3 µM (inactive) | 61 µM (inactive)
C=C1C(=O)OC2CC3(C)OC3CC/C(C)=C/C(OC(C)=O)C12 (stereo not given) | 17.3 µM (inactive) | 11.2 µM (inactive) | 1.41 µM (inactive) | 13.2 µM (inactive) | 2.47 µM (inactive) | 12.4 µM (inactive) | 6.12 µM (inactive) | 3.37 µM (inactive) | 2.55 µM (inactive) | 1.04 µM (active) | 6.01 µM (inactive) | 8.51 µM (inactive) | 4.71 µM (inactive) | 13.2 µM (inactive) | 2.13 µM (inactive) | 17 µM (inactive) | 5.56 µM (inactive) | 15.5 µM (inactive) | 11.5 µM (inactive) | 3.61 µM (inactive)
COc1cc(/C=C/C(=O)CC(=O)/C=C/c2cc(OC)c(O)c(OC)c2)cc(OC)c1O | 8.26 µM (inactive) | 9.31 µM (inactive) | 16.3 µM (inactive) | 7.93 µM (inactive) | 8.69 µM (inactive) | 13.8 µM (inactive) | 4.74 µM (inactive) | 6.84 µM (inactive) | 9.16 µM (inactive) | 5.81 µM (inactive) | 23.7 µM (inactive) | 10.3 µM (inactive) | 10.4 µM (inactive) | 10.4 µM (inactive) | 9.86 µM (inactive) | 5.37 µM (inactive) | 5.71 µM (inactive) | 7.57 µM (inactive) | 6.68 µM (inactive) | 20.2 µM (inactive)
